Results from patent US20210322509A1, “Methods for Reducing Perinatal Morbidity and / or Mortality” (CHU SAINTE-JUSTINE, priority 2016, published 2021).
Marks after values point to notes of the source that are not given here. Non-standard residues stand in square brackets, D forms with d. Residues, ends and D or L forms follow the SMILES beside them. ξ: configuration not given here. dThr(3ξ) = CC(O)[C@@H](N)C(=O)O

Tested on: progeny of C57Bl/6 dams given LPS and/or compound 2
Assay: Offspring growth trajectory and body morphometry at 20 weeks after exposure in utero
Type: in vivo, C57Bl/6 mice
Conditions: for Adrenals L / Adrenals R / Biceps / Brain / Combined Muscle / Gastrocnemius / Heart / Kidneys L / Kidneys R / Lean body weight / Liver / Lungs / Muscle:fat ratio / Ovary L / Ovary R / Parametrial Fat / Peri-renal Fat / Quadriceps / Retroperitoneal Fat / Spleen / Thymus / Total Central Fat / Triceps / Uterus / Epididymal Fat / Epididymis (L + R) / Seminal Vesicle / Testes L / Testes R: mean ± SEM
Experimental: FIGS. 12A and 12B show the effect of exposure to compound 2 in utero on growth trajectory in offspring. Pregnant females were given either LPS or PBS control i.p. on gd 16.5, then compound 2 or PBS vehicle i.p. at 12 h intervals on gd 16.5, 17.0, 17.5 and 18.0. Growth trajectories of male (FIG. 12A) and female (FIG. 12B) progeny of mothers receiving LPS and/or compound 2 are shown as estimated marginal means±SEM, of n=20 male and n=20 female offspring in each group; *P<0.05). Data was analyzed by a Mixed Model Linear Repeated Measures ANOVA and post-hoc Sidak test.
Animal and treatments. To analyze effects of compound 2 on offspring development into adulthood, pups delivered in the experiment described in Example 5 were weighed at 21 days, when pups were weaned and housed in groups of 1-4 siblings according to sex. All progeny were weighed again at 4 weeks and then every 2 weeks until 20 weeks of age. At 20 weeks, progeny were killed by cervical dislocation, weighed and autopsied for full body composition analysis. The following tissues were excised and weighed individually; brain, heart, lungs (left and right), kidneys (left and right), liver, adrenal glands (left and right), thymus, spleen, testes (males, left and right), seminal vesicle (males), epididymis (males), ovaries (females, left and right), uterus (females), quadriceps (left and right), triceps (left and right), biceps (left and right), gastrocnemius muscle (left and right), retroperitoneal fat, peri-renal fat, epididymal fat (males, left and right) and parametrial fat (females). Weights of bilateral tissues and organs were combined for each mouse. Total muscle weight was calculated by summing the weights of quadriceps, triceps, and biceps and gastrocnemius muscles. Total fat weight was calculated by summing the weights of retroperitoneal fat, peri-renal fat and epididymal fat (for males) or parametrial fat (for females), and the muscle/fat ratio was determined. Total fat weight was subtracted from total body weight to calculate total lean weight.

[1] = 20 week old adult female progeny, LPS + compound 2 in utero
[2] = 20 week old adult female progeny, PBS + compound 2 in utero
[3] = 20 week old adult male progeny, LPS + compound 2 in utero
[4] = 20 week old adult male progeny, PBS + compound 2 in utero

## CC(C)C[C@@H](NC(=O)[C@@H](CCC(=O)O)NC(=O)[C@H](NC(=O)[C@H](NC(=O)[C@@H](Cc1ccc(O)cc1)NC(=O)[C@H](N)CCCNC(=N)N)C(C)O)C(C)C)C(=O)N[C@H](C)C(=O)O (stereo partly drawn) [compound 2] (H-[dR][dY][dThr(3ξ)][dV][dE][dL][dA]-OH)
[1]
  Adrenals L: 4 ± 0 mg
  Adrenals R: 4 ± 0 mg
  Biceps: 48 ± 3 mg
  Brain: 408 ± 9 mg
  Combined Muscle: 673 ± 25 mg
  Gastrocnemius: 207 ± 8 mg
  Heart: 105 ± 4 mg
  Kidneys L: 120 ± 5 mg
  Kidneys R: 127 ± 6 mg
  Lean body weight: 19.44 g
  Liver: 955 ± 38 mg
  Lungs: 165 ± 10 mg
  Muscle:fat ratio: 1.23 ± 0.06
  Ovary L: 13 ± 2 mg
  Ovary R: 13 ± 1 mg
  Parametrial Fat: 180 ± 20 mg
  Peri-renal Fat: 66 ± 7 mg
  Quadriceps: 254 ± 13 mg
  Retroperitoneal Fat: 317 ± 18 mg
  Spleen: 86 ± 7 mg
  Thymus: 70 ± 5 mg
  Total Central Fat: 562 ± 41 mg
  Triceps: 165 ± 7 mg
  Uterus: 66 ± 8 mg
[2]
  Adrenals L: 4 ± 0 mg
  Adrenals R: 4 ± 0 mg
  Biceps: 51 ± 3 mg
  Brain: 406 ± 9 mg
  Combined Muscle: 690 ± 24 mg
  Gastrocnemius: 215 ± 8 mg
  Heart: 109 ± 3 mg
  Kidneys L: 112 ± 5 mg
  Kidneys R: 122 ± 6 mg
  Lean body weight: 19.85 g
  Liver: 945 ± 37 mg
  Lungs: 174 ± 11 mg
  Muscle:fat ratio: 1.18 ± 0.06
  Ovary L: 16 ± 2 mg
  Ovary R: 16 ± 1 mg
  Parametrial Fat: 192 ± 20 mg
  Peri-renal Fat: 71 ± 7 mg
  Quadriceps: 254 ± 12 mg
  Retroperitoneal Fat: 326 ± 18 mg
  Spleen: 93 ± 7 mg
  Thymus: 64 ± 5 mg
  Total Central Fat: 589 ± 40 mg
  Triceps: 170 ± 7 mg
  Uterus: 63 ± 7 mg
[3]
  Adrenals L: 4 ± 0 mg
  Adrenals R: 3 ± 1 mg
  Biceps: 58 ± 3 mg
  Brain: 413 ± 5 mg
  Combined Muscle: 848 ± 18 mg
  Epididymal Fat: 224 ± 16 mg
  Epididymis (L + R): 102 ± 3* mg
  Gastrocnemius: 260 ± 7 mg
  Heart: 128 ± 3 mg
  Kidneys L: 149 ± 5 mg
  Kidneys R: 159 ± 5 mg
  Lean body weight: 23.04 g
  Liver: 1097 ± 40 mg
  Lungs: 173 ± 4 mg
  Muscle:fat ratio: 1.39
  Peri-renal Fat: 65 ± 6 mg
  Quadriceps: 313 ± 8 mg
  Retroperitoneal Fat: 334 ± 26 mg
  Seminal Vesicle: 218 ± 9 mg
  Testes L: 84 ± 3 mg
  Testes R: 85 ± 3 mg
  Total Central Fat: 625 ± 37 mg
  Triceps: 217 ± 6 mg
[4]
  Adrenals L: 5 ± 0 mg
  Adrenals R: 6 ± 2 mg
  Biceps: 67 ± 4 mg
  Brain: 404 ± 7 mg
  Combined Muscle: 840 ± 23 mg
  Epididymal Fat: 244 ± 20 mg
  Epididymis (L + R): 112 ± 4 mg
  Gastrocnemius: 241 ± 9 mg
  Heart: 131 ± 4 mg
  Kidneys L: 156 ± 6 mg
  Kidneys R: 162 ± 6 mg
  Lean body weight: 23.59 g
  Liver: 1141 ± 47 mg
  Lungs: 181 ± 5 mg
  Muscle:fat ratio: 1.28
  Peri-renal Fat: 72 ± 7 mg
  Quadriceps: 318 ± 10 mg
  Retroperitoneal Fat: 353 ± 30 mg
  Seminal Vesicle: 233 ± 12 mg
  Testes L: 85 ± 3 mg
  Testes R: 87 ± 3 mg
  Thymus: 53 ± 4 mg
  Total Central Fat: 669 ± 46 mg
  Triceps: 215 ± 8 mg
Compound 2 exposure in utero, 20 weeks
  body composition of adult offspring: no effect
Compound 2 to dams, with or without concurrent LPS exposure, up to 20 weeks
  growth trajectory of male and female offspring: not affected
